From ChEMBL document CHEMBL4813929, “Isolation, Structure Determination, and Total Synthesis of Hoshinoamide C, an Antiparasitic Lipopeptide from the Marine Cyanobacterium Caldora penicillata” (J Nat Prod, 2021)
pIC50: −log10 of the molar value.

How the values were obtained:
HL-60 = experiment: Cytotoxicity against human HL-60 cells assessed as cell growth inhibition at 10 uM measured after 72 hrs by MTT assay; assay type: cell-based; settings: hl-60, 72 h
[1] = system: Trypanosoma brucei rhodesiense; experiment: Antitrypanosomal activity against Trypanosoma brucei rhodesiense IL-1501 assessed as parasite growth inhibition incubated for 69 hrs by AlamarBlue assay; assay type: functional, organism-based; settings: IL-1501, 69 h
HeLa = experiment: Cytotoxicity against human HeLa cells assessed as cell growth inhibition at 10 uM measured after 72 hrs by MTT assay; assay type: cell-based
Plasmodium falciparum = experiment: Antiplasmodial activity against asexual Plasmodium falciparum 3D7 infected in human erythrocytes assessed as reduction in parasitemia measured after 72 hrs by LDH assay; assay type: functional, organism-based; settings: 3D7, Erythrocyte

pIC50 [1] | pIC50 (Plasmodium falciparum) | Compound | Activity (HL-60) | Activity (HeLa)
5.54 | 6.02 | CC[C@H](C)[C@H](C(=O)N[C@@H](CCC(N)=O)C(=O)N[C@H](C(=O)N(C)[C@H](Cc1ccccc1)C(=O)N1CCC[C@H]1C(=O)OC)C(C)C)N(C)C(=O)[C@H](CC(C)C)NC(=O)CC[C@H](C)CCCCNC(=O)CCCc1ccc(O)cc1 | Non-Toxic | Non-Toxic
5.36 | 6.06 | CC[C@H](C)[C@H](C(=O)N[C@@H](CCC(N)=O)C(=O)N[C@H](C(=O)N(C)[C@H](Cc1ccccc1)C(=O)N1CCC[C@H]1C(=O)OC)C(C)C)N(C)C(=O)[C@H](CC(C)C)NC(=O)CC[C@@H](C)CCCCNC(=O)CCCc1ccc(O)cc1 | Non-Toxic | Non-Toxic
– | 9.02 | O=C1C(O)=C([C@H]2CC[C@H](c3ccc(Cl)cc3)CC2)C(=O)c2ccccc21 [ATOVAQUONE] | – | –
9.00 | – | N=C(N)c1ccc(OCCCCCOc2ccc(C(=N)N)cc2)cc1 [PENTAMIDINE] | – | –
